Experiments:
human CYP2D6 = target: T1, human CYP2D6 (Homo sapiens, UniProt P10635); test: CYP2D6 inhibitor assay (recombinant microsomes, AMMC substrate); assay type: in vitro ADME; details: result in words
T1 construct: purchased BD Biosciences (Gentest) 456217; host or cells: baculovirus/insect cells
Experimental: Principle: The inhibition of human CYP2D6 is assessed using microsomes prepared from baculovirus/insect cells cDNA expressing CYP2D6 as enzyme sources and the specific CYP2D6 substrate AMMC (3-[2-(N,N-diethyl-N-methylammonium)-ethyl]-7-methoxy-4-methylcoumarin). AMMC is O-demethylated to AHMC (3-[2-(N,N-diethylamino)ethyl]-7-hydroxy-4-methylcoumarin) which is detected by measuring appearance of fluorescence.
Microsomes prepared from baculovirus/insect cells cDNA expressing CYP2D6 were obtained from BD Biosciences (Gentest 456217). Fluorescence measured Ex. (405 nm) Em. (465 nm) by a SpectroFluor Plus Plate Reader (Tecan Nordic). Incubations with the recombinant CYP2D6 micrsomes contained 1.5 pmol of the recombinant CYP2D6 in 0.2 ml total volume 100 mM phosphate buffer at pH 7.4 containing […] AMMC (3-[2-(N,N-diethyl-N-methylammonium)-ethyl]-7-methoxy-4-methylcoumarin) with a low NADPH-regenerating system consisting of 0.0082 mM NADP^+, 0.41 mM glucose 6-phosphate, 0.41 mM magnesium chloride and 0.4 units/ml glucose-6-phoshate dehydrogenase. The incubation time was 45 min and the incubations were quenched by addition of 0.075 ml 80% Acetonitrile 20% 0.5 M Tris base. All chemicals were of analytical grade from Sigma (St. Louis, Mo.). […] The IC50 values were calculated by linear interpolation.

5-HT2 = details: cited from earlier work
α1 adrenoceptors = details: cited from earlier work
D1/D2 = details: cited from earlier work
D1 and D2 = details: cited from earlier work
human D1 receptors [1] = target: T2, human D1 receptors (Homo sapiens, UniProt P21728); test: DA D1 efficacy assay, inhibition of D1 mediated cAMP formation in CHO cells; assay type: cell-based; parameters: expressed in transfected cells; host or cells: CHO cell line generated in-house
Experimental: The ability of the compounds to inhibit the D1 receptor mediated cAMP formation in a CHO cell line generated in-house stably expressing the human recombinant D1 receptor was measured as follows. Cells were seeded in 96-well plates at a concentration of 11000 cells/well 3 days prior to the experiment. On the day of the experiment the cells were washed once in preheated G buffer (1 mM MgCl2, 0.9 mM CaCl2, 1 mM IBMX in PBS) and the assay was initiated by addition of 100 μl of a mixture of 30 nM A68930 and test compound diluted in G buffer. The cells were incubated for 20 minutes at 37° C. and the reaction was stopped by the addition of 100 μl S buffer (0.1 M HCl and 0.1 mM CaCl2) and the plates were placed at 4° C. for 1 hour. 68 μl N buffer (0.15 M NaOH and 60 mM NaAc) was added and the plates were shaken for 10 minutes. 60 μl of the reaction were transferred to cAMP FlashPlates (DuPont NEN) containing 40 μl 60 mM NaAc pH 6.2 and 100 μl IC mix (50 mM NaAc pH 6.2, 0.1% NaAzid, 12 mM CaCl2, 1% BSA and 0.15 μCi/ml ^125I-cAMP) were added. Following an 18-hour incubation at 4° C. the plates were washed once and counted in a Wallac TrLux counter.

human D1 receptors [2] = target: T2, human D1 receptors; test: DA D1 receptor binding ([3H]-SCH23390, Cerep); parameters: host or cells: CHO cells (membranes)
Experimental: For all assays: Results are expressed as percent inhibition of control specific binding and the IC50 values (concentration causing a half-maximal inhibition of control specific binding) are determined by non-linear regression analysis using Hill equation curve fitting. The inhibition constants (Ki) were calculated from the Cheng Prusoff equation Ki=IC50/(1+(L/KD)), where L equals the concentration of radioligand in the assay) and KD equals the affinity of the radioligand for the receptor. Affinities towards human D1 receptors were determined at the contract laboratory Cerep using the catalog reference assay no 803-1h. Membranes from CHO cells expressing human recombinant D1 receptors were used. 0.3 nM [^3H]-SCH23390 was used as radioligand and compounds were tested in a serial dilution concurrently with the reference compound SCH23390 in order to assess the assay suitability. Aliqouts were incubates at 22° C. for 60 min and bound radioactivity are measured with a liquid scintillation counter. Specific control binding to the D1 receptors was defined as the difference between the total binding determined without compound present and the non-specific binding determined in the presence of 1 μm SCH 23390.

5-HT2A receptors = target: T3, 5-HT2A receptors (Homo sapiens, UniProt P28223); test: Serotonin 5-HT2A efficacy assay (Ca2+ fluorescence, CHO cells); assay type: cell-based
T3 construct: expressed in transfected cells; host or cells: CHO cells
Experimental: 2 or 3 days before the experiment, CHO cells expressing 250 fmol/mg S-HT2A receptors are plated at a density sufficient to yield a mono-confluent layer on the day of the experiment. The cells are dye loaded (Ca^2+-kit from Molecular Devices and using Hank's balanced salt w/o phenol red, added 20 mM HEPES and pH adjusted to 7.4 with 2M NaOH as assaybuffer) for 60 minutes at 37° C. in a 5% CO2 incubator at 95% humidity. Lacer intensity is set to a suitable level to obtain basal values of approximately 8000-10000 fluorescence units. The variation in basal fluorescence should be less than 10%. EC50 values are assessed using increasing concentrations of test compound covering at least 3 decades. IC50 values are assessed challenging the same range of concentrations of test substances with EC85 of 5-HT. Test substances are added to the cells 5 minutes before the 5-HT. […] Maximum inhibition is the level of inhibition the curve reaches. It is expressed as the percentage inhibition at that level and used to distinguish full and partial antagonists.

alpha-1 adrenoceptors = test: Alpha-1 adrenoceptor binding ([3H]Prazosin); parameters: species or system rat
Experimental: (§1) For all assays: Results are expressed as percent inhibition of control specific binding and the IC50 values (concentration causing a half-maximal inhibition of control specific binding) are determined by non-linear regression analysis using Hill equation curve fitting. The inhibition constants (Ki) were calculated from the Cheng Prusoff equation Ki=IC50/(1+(L/KD)), where L equals the concentration of radioligand in the assay) and KD equals the affinity of the radioligand for the receptor.
Chinese hamster ovary (CHO) cell lines expressing rat alpha1d and Baby hamster Kidney (BHK) cells expressing bovine alpha1a were generated using standard stable transfection techniques. The Rat-1 cell line expressing the hamster alpha1b receptor was obtained from University of Utah, Salt Lake City, Utah. […] Total binding was determined using assay buffer and non-specific binding was defined in the presence of 1 μM WB-4101 for all subtypes of alpha1 receptors. […] In all assays bound and free radioactivity were separated by vacuum filtration on GF/B filters pretreated with Polyetyleneimine (PEI) and counted in a scintillation counter.
By this method, the inhibition by drugs of the binding of [^3H]Prazosin (0.25 nM) to alpha-1 receptors in membranes from rat brain is determined in vitro. […]

human D2 receptor [3] = target: T4, human D2 receptor (Homo sapiens, UniProt P14416); test: DA D2 efficacy assay, inhibition of D2 mediated inhibition of cAMP formation in CHO cells; assay type: cell-based
T4 construct: expressed in transfected cells; host or cells: CHO cells
Experimental: The ability of the compounds to inhibit the D2 receptor mediated inhibition of cAMP formation in CHO cells transfected with the human D2 receptor was measure as follows.
Cells were seeded in 96 well plates at a concentration of 8000 cells/well 3 days prior to the experiment. On the day of the experiment the cells were washed once in preheated G buffer (1 mM MgCl2, 0.9 mM CaCl2, 1 mM IBMX in PBS) and the assay was initiated by addition of 100 μl of a mixture of 1 μM quinpirole, 10 μM forskolin and test compound in G buffer. The cells were incubated 20 minutes at 37° C. and the reaction was stopped by the addition of 100 μl S buffer (0.1 M HCl and 0.1 mM CaCl2) and the plates were placed at 4° C. for 1 hour. 68 μl N buffer (0.15 M NaOH and 60 mM NaAc) were added and the plates were shaken for 10 minutes. 60 μl of the reaction were transferred to cAMP FlashPlates (DuPont NEN) containing 40 μl 60 mM NaAc pH 6.2 and 100 μl IC mix (50 mM NaAc pH 6.2, 0.1% NaAzid, 12 mM CaCl2, 1% BSA and 0.15 μCi/ml ^125I-cAMP) were added. Following an 18-hour incubation at 4° C. the plates were washed once and counted in a Wallac TriLux counter.

[4] = QT-interval in the alpha-chloralose anaesthetised rabbit; assay type: in vivo
Experimental: The model described in the following was originally designed as a proarrhytmic model by Carlsson et al, [J Cardiovasc Pharmacol. 1990;16:276-85.] and has been modified to fit into screening set-up as described below under “animal preparation”.
Male rabbits (HsdIf:NZW, outbreed) weighing 2.0-2.8 kg were purchased from Harlan (The Netherlands). Individual body weights were measured and recorded on the day of experiment. […]
ECG, blood pressure and HR were continuously recorded on a Maclab 8/s using the Chart software v3.6.1 for the Macintosh computer. […] Effects on the electrocardiogram (PQ-, QRS-, QT-, QTc-intervals and heart rate) and mean arterial blood pressure (MAP) were recorded and measured electronically.

human D2 receptor [5] = target: T4, human D2 receptor; test: DA D2 receptor binding ([3H]-Spiperone)
Experimental: as §1
CHO cells expressing approximately 800 fmol/mg human recombinant D2 receptors were generated standard stable transfection techniques. […] Total binding was determined in the presence of buffer and non-specific binding was determined in the presence of 10 μM haloperidol. The mixture was incubated for 30 minutes at 37° C., cooled briefly on ice. Bound and free radioactivity was separated by vacuum filtration on GF/C filters pretreated with 0.1% Polyetyleneime (PEI) and filters were counted in a scintillation counter.

T2 sequence (P21728 whole entry): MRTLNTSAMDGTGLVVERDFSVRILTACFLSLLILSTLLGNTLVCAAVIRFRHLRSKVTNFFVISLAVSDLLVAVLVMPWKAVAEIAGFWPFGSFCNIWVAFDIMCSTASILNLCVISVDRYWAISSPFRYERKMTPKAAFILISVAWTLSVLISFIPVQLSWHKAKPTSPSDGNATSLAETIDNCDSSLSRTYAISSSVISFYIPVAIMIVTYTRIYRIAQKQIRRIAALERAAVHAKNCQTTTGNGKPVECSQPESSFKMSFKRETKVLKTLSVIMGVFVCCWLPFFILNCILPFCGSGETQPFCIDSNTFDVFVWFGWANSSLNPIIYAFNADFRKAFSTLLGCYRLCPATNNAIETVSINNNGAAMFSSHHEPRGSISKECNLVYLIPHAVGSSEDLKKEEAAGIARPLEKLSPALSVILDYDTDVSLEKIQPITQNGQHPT
T1 sequence (P10635 whole entry): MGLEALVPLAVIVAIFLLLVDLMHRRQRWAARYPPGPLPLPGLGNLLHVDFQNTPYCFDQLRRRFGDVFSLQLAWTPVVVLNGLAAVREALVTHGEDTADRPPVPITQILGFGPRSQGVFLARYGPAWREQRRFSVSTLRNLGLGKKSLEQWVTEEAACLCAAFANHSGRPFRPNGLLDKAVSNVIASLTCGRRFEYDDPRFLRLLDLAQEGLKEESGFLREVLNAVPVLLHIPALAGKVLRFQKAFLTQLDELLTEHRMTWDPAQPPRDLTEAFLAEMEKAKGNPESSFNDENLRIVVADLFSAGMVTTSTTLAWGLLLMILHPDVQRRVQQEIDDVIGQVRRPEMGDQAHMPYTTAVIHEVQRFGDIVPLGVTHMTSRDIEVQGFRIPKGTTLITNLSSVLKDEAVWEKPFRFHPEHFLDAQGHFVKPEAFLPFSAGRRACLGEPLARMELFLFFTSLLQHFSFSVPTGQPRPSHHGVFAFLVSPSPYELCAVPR
T4 sequence (P14416 whole entry): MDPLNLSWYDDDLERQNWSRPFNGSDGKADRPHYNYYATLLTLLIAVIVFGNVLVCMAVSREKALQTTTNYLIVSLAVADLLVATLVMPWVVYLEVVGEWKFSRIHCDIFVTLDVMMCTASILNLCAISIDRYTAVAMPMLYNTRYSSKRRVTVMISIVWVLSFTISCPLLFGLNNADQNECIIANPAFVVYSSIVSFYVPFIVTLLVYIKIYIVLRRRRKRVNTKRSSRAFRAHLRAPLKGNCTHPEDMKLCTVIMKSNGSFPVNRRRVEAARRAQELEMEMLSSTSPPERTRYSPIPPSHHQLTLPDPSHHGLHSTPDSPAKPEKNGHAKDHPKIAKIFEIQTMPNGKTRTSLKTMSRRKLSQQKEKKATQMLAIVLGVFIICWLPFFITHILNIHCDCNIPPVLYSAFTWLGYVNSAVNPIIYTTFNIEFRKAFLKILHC
T3 sequence (P28223 whole entry): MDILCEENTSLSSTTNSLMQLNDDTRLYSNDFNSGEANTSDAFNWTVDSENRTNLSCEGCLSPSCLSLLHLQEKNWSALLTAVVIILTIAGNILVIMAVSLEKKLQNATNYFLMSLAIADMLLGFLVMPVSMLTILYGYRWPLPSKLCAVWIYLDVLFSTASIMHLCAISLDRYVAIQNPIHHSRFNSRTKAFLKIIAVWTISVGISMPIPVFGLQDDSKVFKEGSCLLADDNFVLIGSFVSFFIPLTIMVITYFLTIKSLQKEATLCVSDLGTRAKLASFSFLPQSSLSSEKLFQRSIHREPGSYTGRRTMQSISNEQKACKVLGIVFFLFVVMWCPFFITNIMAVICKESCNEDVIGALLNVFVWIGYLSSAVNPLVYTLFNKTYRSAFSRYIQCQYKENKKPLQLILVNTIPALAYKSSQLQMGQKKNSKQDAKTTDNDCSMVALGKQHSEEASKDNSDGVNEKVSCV

Row | inhibition of CYP2D6 (human CYP2D6) | functional activity at dopamine D1 receptors (human D1 receptors [1]) | affinity for dopamine D1 receptors (human D1 receptors [2]) | functional activity at serotonin 5-HT2a receptors (5-HT2A receptors) | affinity for alfa1 adrenoceptors (alpha-1 adrenoceptors) | functional activity at dopamine D2 receptors (human D2 receptor [3]) | affinity for dopamine D2 receptors (human D2 receptor [5]) | Compound | 5-HT2 antagonism (5-HT2) | affinity for α1 adrenoceptors (α1 adrenoceptors) | D1/D2 antagonism in vitro (D1/D2) | D1 and D2 antagonism in vivo (D1 and D2) | prolonging effect on the QT-interval in the electrocardiogram (ECG) [4]
1 | considerable more potent | – | – | – | – | – | – | CC1(C)CN([C@@H]2C[C@@H](c3ccccc3)c3ccc(Cl)cc32)CCN1 (racemic) [racemate of the compound of the present invention, trans-1-(6-chloro-3-phenylindan-1-yl)-3,3-dimethylpiperazine] | – | – | – | – | –
2 | – | – | – | – | – | – | – | CN1CCN([C@@H]2C[C@@H](c3ccccc3)c3ccc(Cl)cc32)CC1(C)C [(−)-38] | potent 5-H T2 antagonist | high affinity | potent D1/D2 antagonists showing some D1 selectivity | equipotent as D1 and D2 antagonist | –
3 | relatively weak inhibitor | antagonist | high affinity | antagonist | high affinity | antagonist | high affinity | CC1(C)CN([C@@H]2C[C@@H](c3ccccc3)c3ccc(Cl)cc32)CCN1 [Compound I, trans-1-((1R,3S)-6-chloro-3-phenylindan-1-yl)-3,3-dimethylpiperazine] | – | – | – | – | relatively low prolonging effect

From patent publication US7772240B2, “Trans-1(6-chloro-3-phenylindan-1-yl)-3,3-dimethylpiperazine” (H. Lundbeck A/S, priority 2003, dated 2010)
